Assay results published in patent US20100093726A1 (Giuseppe CAMPIANI, priority 2007, published 2010).

Legend:
[1] = Cytotoxicity on Daudi cells; type: cell-based; settings: human, Daudi cells (human lymphoblastoid cell line); read-out: TC50 (μM) Daudi cells
[2] = Cytotoxicity on NSO cells; type: cell-based; settings: mouse, NSO cells (plasmocytoma murine cell line); read-out: TC50 (μM) NSO cells
[3] = system: P. falciparum NF54; assay: In vitro antiplasmodial activity, P. falciparum NF54 (CQ-S clone); type: cell-based; settings: Plasmodium falciparum, NF54, read-out: IC50 (nM) NF54
Protocol: (§1) Some of the synthesized compounds were tested in vitro against two different strains of P. falciparum, namely 3D7, NF54 and D10 (CQ-S strain) and K1 and W2 (CQ-R strain).

[4] = Cytotoxicity on normal human lymphocytes; type: cell-based; settings: normal human lymphocytes PHA-stimulated; read-out: TC50 (μM) Normal human lymphocytes
[5] = system: P. falciparum K1; assay: microbe, parasite or virus in culture; type: cell-based; settings: Plasmodium falciparum, K1, read-out: IC50 (nM) K1
Protocol: as §1

[6] = system: P. falciparum W2; assay: microbe, parasite or virus in culture; type: cell-based; settings: Plasmodium falciparum, W2, read-out: IC50 (nM) W2
Protocol: as §1

[7] = system: P. falciparum D10; assay: In vitro antiplasmodial activity, P. falciparum D10 (CQ-S clone); type: cell-based; settings: Plasmodium falciparum, D10, read-out: IC50 (nM) D10
Protocol: as §1

[8] = system: P. falciparum 3D7; assay: In vitro antiplasmodial activity, P. falciparum 3D7 (CQ-S clone); type: cell-based; settings: Plasmodium falciparum, 3D7, read-out: IC50 (nM) 3D7
Protocol: as §1

[9] = system: Candida glabrata MGMI 2; assay: Antifungal susceptibility (CLSI broth dilution), Candida glabrata; type: cell-based; settings: CLSI protocol, clinical isolate
Excerpt: (§2) (1) National Committee for Clinical Laboratory Standards. (2002). Reference method for broth dilution antifungal susceptibility testing of yeasts—Second Edition: Approved Standard, M27-A2. NCCLS, Wayne, Pa.; and
(§3) (2) National Committee for Clinical Laboratory Standards. Reference method for broth dilution antifungal susceptibility testing of filamentous fungi: Approved Standard, M38-A. 2002; NCCLS, Wayne, Pa.

[10] = system: yeast and filamentous fungi; assay: Antifungal activity, overall statement; type: cell-based; settings: yeast and filamentous fungi of Table 4
[11] = system: KB cell (human carcinoma of the nasopharynx cell line); assay: Cytotoxicity on KB cells; type: cell-based
[12] = system: Candida krusei ATCC ® 6258; assay: Antifungal susceptibility (CLSI broth dilution), Candida krusei; type: cell-based; settings: CLSI protocol, quality control strain
Excerpt: as §2, §3

[13] = system: Candida parapsilosis ATCC ® 22019; assay: Antifungal susceptibility (CLSI broth dilution), Candida parapsilosis; type: cell-based; settings: CLSI protocol, quality control strain
Excerpt: as §2, §3

[14] = system: Cryptococcus neoformans MGMI 3; assay: Antifungal susceptibility (CLSI broth dilution), Cryptococcus neoformans; type: cell-based; settings: CLSI protocol, clinical isolate
Excerpt: as §2, §3

[15] = system: Aspergillus fumigatus MGMI 4; assay: Antifungal susceptibility (CLSI broth dilution), Aspergillus fumigatus MGMI 4; type: cell-based; settings: CLSI protocol, clinical isolate
Excerpt: as §2, §3

[16] = system: Candida albicans MGMI 1; assay: Antifungal susceptibility (CLSI broth dilution), Candida albicans; type: cell-based; settings: CLSI protocol, clinical isolate
Excerpt: as §2, §3

[17] = system: Aspergillus fumigatus MGMI 5; assay: Antifungal susceptibility (CLSI broth dilution), Aspergillus fumigatus MGMI 5 (ITRA resistant); type: cell-based; settings: for antifungal susceptibility value (MIC), Aspergillus fumigatus MGMI 5: CLSI protocol, clinical isolate, itraconazole resistant
Excerpt: as §2, §3

[18] = system: Aspergillus flavus ATCC ® 204304; assay: Antifungal susceptibility (CLSI broth dilution), Aspergillus flavus; type: cell-based; settings: CLSI protocol, reference strain
Excerpt: as §2, §3

[19] = system: P. Chabaudi AS; assay: In vivo activity against P. chabaudi; settings: per os; for P. Chabaudi AS (% inhibition at 50 mg/Kg): single dose of 50 mg/Kg
[20] = system: β-hematin formation (hemin); assay: BHIA (β-hematin inhibitory activity) assay; type: biochemical; settings: hemin in dimethyl sulfoxide-acetate buffer at pH 5.0, 37° C., 18 h
[21] = system: P. Berghei ANKA; assay: In vivo activity against P. berghei; settings: doses up to 100 mg/Kg
Protocol: The experiment was performed at a single dose of 50 mg/Kg. ED50 was determined for 9a in P. berghei ANKA. All compounds were adminstered per os.

SMILES | CC50 [1] [µM] | CC50 [2] [µM] | IC50 [3] [nM] | CC50 [4] [µM] | IC50 [5] [nM] | IC50 [6] [nM] | IC50 [7] [nM] | IC50 [8] [nM] | antifungal susceptibility value (MIC), Candida glabrata MGMI 2 [9] | TC50 (μM) KB cell [11] [µM] | antifungal susceptibility value (MIC), Candida krusei ATCC 6258 [12] | antifungal susceptibility value (MIC), Candida parapsilosis ATCC 22019 [13] | antifungal susceptibility value (MIC), Cryptococcus neoformans MGMI 3 [14] | antifungal susceptibility value (MIC), Aspergillus fumigatus MGMI 4 [15] | antifungal susceptibility value (MIC), Candida albicans MGMI 1 [16] | antifungal susceptibility value (MIC), Aspergillus fumigatus MGMI 5 [17] | antifungal susceptibility value (MIC), Aspergillus flavus ATCC 204304 [18] | P. Chabaudi AS (% inhibition at 50 mg/Kg) [19] [%] | other results
Clc1cccc(C(Nc2ccnc3cc(Cl)ccc23)c2ccc(CN3CCOCC3)cc2)c1 (racemic) [Compound 9b] | 43.9 | 44.7 | 155 | 40.8 | 259 | 220 | 142 | – | – | – | – | – | – | – | – | – | – | – | –
Clc1ccc(C(Nc2ccnc3cc(Cl)ccc23)c2ccc(CN3CCCC3)cc2)cc1 (racemic) [Compound 9e] | 8.65 | 8.65 | 15 | 17.3 | 9 | 72.1 | 45.8 | 3.7 | >32 | 19.61 | >32 | 16 | 16 | >32 | >32 | >32 | >32 | 99.5 | anti-fungal activity (in words) [10]: lack of anti-fungal activity
FC(F)(F)c1ccc2c(NC(c3cccc(Cl)c3)c3ccc(CN4CCOCC4)c(Cl)c3)ccnc2c1 (racemic) [Compound 9j] | – | – | 163 | – | 375 | – | – | – | – | – | – | – | – | – | – | – | – | – | –
FC(F)(F)c1ccc2c(NC(c3ccc(Cl)cc3)c3ccc(CN4CCCC4)cc3)ccnc2c1 (racemic) [Compound 9k] | 14.1 | 12.1 | 20 | 24.2 | 30 | 90.5 | 61.5 | 0.2 | >32 | 5.49 | >32 | 16 | 16 | >32 | 16 | >32 | >32 | 99.6 | anti-fungal activity (in words) [10]: lack of anti-fungal activity
Clc1ccc(C(Nc2ccnc3cc(Cl)ccc23)(c2ccccc2)c2ccc(CN3CCCC3)cc2)cc1 (racemic) [Compound 15a] | 16.7 | 14.9 | – | 18.6 | 22 | – | – | 3 | – | – | – | – | – | – | – | – | – | 99.9 | –
CCN(CC)Cc1cc(Nc2ccnc3cc(Cl)ccc23)ccc1O [Amodiaquine] | – | – | – | – | – | – | – | – | – | – | – | – | – | – | – | – | – | – | β-hematin inhibitory activity IC50 [20]: 0.79 ± 0.01 Molar equivalents of compound relative to hemin
Clc1ccccc1C(c1ccccc1)(c1ccccc1)n1ccnc1 [CLT, clotrimazole, reference compound] | – | – | – | – | – | – | – | – | – | 88.1 | – | 2 µg/mL | 2 µg/mL | 4 µg/mL | 0.03 µg/mL | 4 µg/mL | 4 µg/mL | 6.0 | activity against P. berghei in vivo [21]: not active
CCN(CC)CCCC(C)Nc1ccnc2cc(Cl)ccc12 (centres unmarked) [CQ, chloroquine, reference compound] | – | – | 7 | – | 260 | 280 | 22 | 10 | – | 207.0 | – | – | – | – | – | – | – | – | β-hematin inhibitory activity IC50 [20]: 0.91 ± 0.23 Molar equivalents of compound relative to hemin; P. Chabaudi AS (% inhibition) ([19]; 10 mg/Kg): 100 (10 mg/Kg) %
CCC(C)n1ncn(-c2ccc(N3CCN(c4ccc(OCC5COC(Cn6cncn6)(c6ccc(Cl)cc6Cl)O5)cc4)CC3)cc2)c1=O (centres unmarked) [ITRA, itraconazole, reference compound] | – | – | – | – | – | – | – | – | 32 µg/mL | – | 0.25 µg/mL | 0.125 µg/mL | 0.25 µg/mL | 0.06 µg/mL | 0.25 µg/mL | > 32 µg/mL | 0.06 µg/mL | – | MIC ([17]; Aspergillus fumigatus, MGMI5, strain description in text, itraconazole resistant isolate): > 16 µg/mL
